Assays:
[1] = target: T1, sGC (Rattus norvegicus, UniProt P20595); experiment: sGC-activating activity in the CHO reporter cell in vitro; type: cell-based
T1 construct: expressed in transfected cells; host or cells: CHO reporter cell line
T1 sequence (P20595 1-619): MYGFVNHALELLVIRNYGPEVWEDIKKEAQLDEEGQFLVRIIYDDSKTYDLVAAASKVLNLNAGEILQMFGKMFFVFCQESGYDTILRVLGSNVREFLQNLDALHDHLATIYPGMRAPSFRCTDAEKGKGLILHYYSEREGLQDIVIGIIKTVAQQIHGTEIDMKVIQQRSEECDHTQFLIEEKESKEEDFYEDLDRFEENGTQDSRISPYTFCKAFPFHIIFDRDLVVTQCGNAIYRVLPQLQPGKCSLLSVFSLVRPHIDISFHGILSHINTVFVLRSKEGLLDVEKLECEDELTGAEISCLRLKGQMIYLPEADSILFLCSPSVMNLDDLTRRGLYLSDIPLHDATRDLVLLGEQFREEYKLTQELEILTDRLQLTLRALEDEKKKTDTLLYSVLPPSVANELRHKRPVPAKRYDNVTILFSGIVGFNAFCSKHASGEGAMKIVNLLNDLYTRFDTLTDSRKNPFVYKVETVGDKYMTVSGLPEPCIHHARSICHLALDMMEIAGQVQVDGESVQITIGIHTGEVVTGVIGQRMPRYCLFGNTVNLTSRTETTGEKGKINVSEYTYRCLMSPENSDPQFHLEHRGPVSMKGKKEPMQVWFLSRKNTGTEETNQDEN
T1 sequence (P19686 1-690 partner): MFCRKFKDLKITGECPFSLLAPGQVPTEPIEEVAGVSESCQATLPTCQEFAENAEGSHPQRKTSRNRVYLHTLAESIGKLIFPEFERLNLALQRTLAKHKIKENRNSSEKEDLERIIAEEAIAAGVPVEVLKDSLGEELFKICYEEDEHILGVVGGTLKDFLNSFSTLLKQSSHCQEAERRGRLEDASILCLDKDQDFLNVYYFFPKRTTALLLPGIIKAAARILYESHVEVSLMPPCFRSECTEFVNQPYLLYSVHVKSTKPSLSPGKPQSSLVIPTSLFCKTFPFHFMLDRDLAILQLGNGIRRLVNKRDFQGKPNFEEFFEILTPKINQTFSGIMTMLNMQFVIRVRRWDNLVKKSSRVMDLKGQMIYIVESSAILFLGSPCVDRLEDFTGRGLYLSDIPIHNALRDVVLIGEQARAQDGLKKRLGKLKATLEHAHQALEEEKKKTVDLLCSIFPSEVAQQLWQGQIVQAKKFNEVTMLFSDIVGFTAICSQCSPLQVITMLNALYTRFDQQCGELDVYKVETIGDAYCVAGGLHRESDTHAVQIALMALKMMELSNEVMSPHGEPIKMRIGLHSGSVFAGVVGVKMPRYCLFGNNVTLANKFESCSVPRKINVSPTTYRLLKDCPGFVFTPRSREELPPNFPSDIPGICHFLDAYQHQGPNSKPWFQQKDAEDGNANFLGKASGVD
Experimental: The cellular action of the compounds according to the invention is determined at a recombinant guanylate cyclase reporter cell line, as described in F. Wunder et al., Anal. Biochem. 339, 104-112 (2005).

[2] = target: T2, soluble guanylate cyclase (sGC) (Rattus norvegicus, UniProt P20595); experiment: Stimulation of sGC enzyme activity (PPi/luciferase detection); type: biochemical; conditions: sGC enzyme in vitro
T2 construct: made in house; host or cells: baculovirus/Sf9 insect cells
T2 sequence (P20595 1-619): T1 sequence (P20595 1-619)
T2 sequence (P19686 1-690 partner): T1 sequence (P19686 1-690 partner)
Experimental: Soluble guanylate cyclase (sGC) converts on stimulation GTP into cGMP and pyrophosphate (PPi). PPi is detected with the aid of the assay described below. The signal produced in the assay increases as the reaction progresses and serves as a measure of the sGC enzyme activity under the given stimulation.
To carry out the assay, 29 μl of enzyme solution [0-10 nM soluble guanylate cyclase (prepared according to Honicka et al., J. Mol. Med. 77, 14-23 (1999)) in 50 mM TEA, 2 mM MgCl2, 0.1% BSA (fraction V), 0.005% Brij®, pH 7.5] are initially introduced into a microplate, and 1 μl of the substance to be tested (as a serially diluted solution in DMSO) is added. The mixture is incubated at room temperature for 10 min. Then 20 μl of detection mix [1.2 nM Firefly Luciferase (Photinus pyralis luciferase, Promega), 29 μM dehydroluciferin (prepared according to Bitler & McElroy, Arch. Biochem. Biophys. 72, 358 (1957)), 122 μM luciferin (Promega), 153 μM ATP (Sigma) and 0.4 mM DTT (Sigma) in 50 mM TEA, 2 mM MgCl2, 0.1% BSA (fraction V), 0.005% Brij®, pH 7.5] are added. The enzyme reaction is started by adding 20 μl of substrate solution [1.25 mM guanosine 5′-triphosphate (Sigma) in 50 mM TEA, 2 mM MgCl2, 0.1% BSA (fraction V), 0.005% Brij®, pH 7.5] and measured continuously in a luminometer. The extent of the stimulation by the substance to be tested can be determined relative to the signal of the unstimulated reaction.
The activation of heme-free guanylate cyclase is examined by addition of 25 μM of 1H-1,2,4-oxadiazolo[4,3-a]quinoxalin-1-one (ODQ) to the enzyme solution and subsequent incubation for 30 minutes and compared to the stimulation of the native enzyme.

[3] = target: T3, Heme-containing sGC (Rattus norvegicus, UniProt P20595); experiment: Stimulation of recombinant soluble guanylate cyclase in vitro, heme-containing enzyme; type: biochemical
T3 construct: made in house; host or cells: baculovirus/Sf9 insect cells
T3 sequence (P20595 1-619): T1 sequence (P20595 1-619)
T3 sequence (P19686 1-690 partner): T1 sequence (P19686 1-690 partner)
Description: Hoenicka, E. M. Becker, H. Apeler, T. Sirichoke, H. Schroeder, R. Gerzer and J.-P. Stasch, “Purified soluble guanylyl cyclase expressed in a baculovirus/Sf9 system: Stimulation by YC-1, nitric oxide, and carbon oxide”, J. Mol. Med. 77 (1999), 14-23. The heme-free guanylate cyclase is obtained by adding Tween 20 to the sample buffer (0.5% in the final concentration).
The activation of sGC by a test substance is reported as n-fold stimulation of the basal activity.

O=C(NCCCCC1(C(=O)O)CC1)C(c1ccc(CN2N=C(c3ccccc3)OCC2=O)cc1)C1CCCC1 (single isomer, unassigned; (+)) [Example 1, (+)-1-(4-{[2-cyclopentyl-2-{4-[(5-oxo-2-phenyl-5,6-dihydro-4H-1,3,4-oxadiazin-4-yl)methyl]phenyl}-acetyl]amino}butyl)cyclopropanecarboxylic acid]
MEC (minimum effective concentration), sGC-activating activity in the CHO reporter cell [1]: 10 nM
MEC (minimum effective concentration), activating action at the sGC enzyme [2]: 51 nM
Stimulation (n-fold) of heme-containing sGC, Basal ([3]; 0.1 μM Example 1): 1.5 n-fold
Stimulation (n-fold) of heme-containing sGC, +0.1 μM DEA/NO ([3]; 0.1 μM Example 1 + 0.1 μM DEA/NO): 21.9 n-fold
Stimulation (n-fold) of heme-containing sGC, +10 μM ODQ ([3]; 0.1 μM Example 1 + 10 μM ODQ): 3.0 n-fold
Stimulation (n-fold) of heme-containing sGC, Basal ([3]; 1 μM Example 1): 1.4 n-fold
Stimulation (n-fold) of heme-containing sGC, +0.1 μM DEA/NO ([3]; 1 μM Example 1 + 0.1 μM DEA/NO): 19.3 n-fold
Stimulation (n-fold) of heme-containing sGC, +10 μM ODQ ([3]; 1 μM Example 1 + 10 μM ODQ): 3.7 n-fold
Stimulation (n-fold) of heme-containing sGC, Basal ([3]; 10 μM Example 1): 2.6 n-fold
Stimulation (n-fold) of heme-containing sGC, +0.1 μM DEA/NO ([3]; 10 μM Example 1 + 0.1 μM DEA/NO): 20.0 n-fold
Stimulation (n-fold) of heme-containing sGC, +10 μM ODQ ([3]; 10 μM Example 1 + 10 μM ODQ): 10.3 n-fold
Stimulation (n-fold) of heme-containing sGC, Basal ([3]; 100 μM Example 1): 14.0 n-fold
Stimulation (n-fold) of heme-containing sGC, +0.1 μM DEA/NO ([3]; 100 μM Example 1 + 0.1 μM DEA/NO): 37.8 n-fold
Stimulation (n-fold) of heme-containing sGC, +10 μM ODQ ([3]; 100 μM Example 1 + 10 μM ODQ): 46.6 n-fold
Effect of combination with the NO donor DEA/NO on sGC stimulation ([3]; combination with DEA/NO, heme-containing sGC): no synergistic effect
Effect of the heme-dependent sGC inhibitor ODQ on sGC activation ([3]; with ODQ, heme-containing sGC, effect is in fact increased): not blocked

— patent US8642592B2, “Oxo-heterocyclically substituted alkyl carboxylic acids and use thereof” (Bayer Intellectual Property GmbH, priority 2009, dated 2014)
